Nine compounds from EP4241843B1, “ALCOHOL DERIVATIVES AS KV7 POTASSIUM CHANNEL OPENERS” (H. Lundbeck A/S, priority 2018, dated 2019) can be followed below.

Experiment [1] has as its target T1, HEK-hKv7.2/hKv7.3 cells (Homo sapiens, UniProt O43525+O43526).
T1 construct: P2A self-cleaving peptide between the two subunits (remnant after ribosomal skipping); expressed in transfected cells
Briefly: Thallium influx assay for potassium channel activation. Conditions: AUC as readout, normalized to a reference compound. It counts as cell-based. The method, then: (§1) A synthesized cDNA fragment encoding human Kv7.3 and human Kv7.2 separated by a P2A sequence was inserted into the pcDNA5/FRT/TO vector using the BamHI and XhoI restriction sites. The construct was then transfected into HEK Flp-In 293 cells using Lipofectamine2000. The transfected cells were grown for 48 hours in DMEM containing 10% (v/v) FBS and 1% PenStrep and subsequently maintained under selection in DMEM containing 10% (v/v) FBS, 1 % PenStrep and 200 ug/mL Hygromycin B at 37°C in a humidified atmosphere of 5% CO2.
The thallium influx assay for potassium channel activation was performed analogously to a published procedure (C.D. Weaver, et al., J Biomol Screen 2004, 9, 671-677) using the FLIPR Potassium Assay kit (Molecular Devices). HEK-hKv7.2/hKv7.3 cells were plated onto 96-well, black-walled, clear-bottomed culture plates (Corning, Acton, MA, USA) at a density of 80,000 cells/well (100 µl/well) if the cells were assayed the following day, or 40,000 cells/well (100 µl/well) if the cells were assayed two days after seeding.
On the assay day, the medium was removed after which 50 uL/well of test compound diluted to 2x final concentration in HBSS containing 20 mM HEPES, and 50 uL/well of 2x dye load buffer were added. The cells were then incubated for 60 min at room temperature in the dark. Chloride-free stimulation buffer containing Tl^+ and K^+ at 5x final concentration (5x concentration: 5 mM in both cases) and test compound at 1x final concentration, were prepared during the incubation. The cells were then assayed in a FDSS7000EX Functional Drug Screening System (Hamamatsu). Following 60 sec of baseline fluorescence signal reading at 0.1 Hz, and 10 sec at 1 Hz, 25 uL/well of stimulation buffer were added and the fluorescence continuously measured for 50 sec at 1 Hz followed, by 4 min at 0.1 Hz. Compound effect was quantified using AUC as readout and normalized to a reference compound, which was included on each plate.

Experiment [2] deals with T2, hKv7.2/hKv7.3 cell line (HEK-hKv7.2/hKv7.3) (Homo sapiens, UniProt O43525+O43526).
T2 construct: P2A self-cleaving peptide between the two subunits (remnant after ribosomal skipping); expressed in transfected cells
Briefly: Automated whole cell patch-clamp functional test of the stable cell line. Conditions: stable HEK-hKv7.2/hKv7.3 cell line. It counts as cell-based. The method, then: as §1
For orientation: The patch-clamp technique gives a direct electrical read-out from membranes.

pEC50: −log10 of the molar value.

T1 sequence (O43525 whole entry): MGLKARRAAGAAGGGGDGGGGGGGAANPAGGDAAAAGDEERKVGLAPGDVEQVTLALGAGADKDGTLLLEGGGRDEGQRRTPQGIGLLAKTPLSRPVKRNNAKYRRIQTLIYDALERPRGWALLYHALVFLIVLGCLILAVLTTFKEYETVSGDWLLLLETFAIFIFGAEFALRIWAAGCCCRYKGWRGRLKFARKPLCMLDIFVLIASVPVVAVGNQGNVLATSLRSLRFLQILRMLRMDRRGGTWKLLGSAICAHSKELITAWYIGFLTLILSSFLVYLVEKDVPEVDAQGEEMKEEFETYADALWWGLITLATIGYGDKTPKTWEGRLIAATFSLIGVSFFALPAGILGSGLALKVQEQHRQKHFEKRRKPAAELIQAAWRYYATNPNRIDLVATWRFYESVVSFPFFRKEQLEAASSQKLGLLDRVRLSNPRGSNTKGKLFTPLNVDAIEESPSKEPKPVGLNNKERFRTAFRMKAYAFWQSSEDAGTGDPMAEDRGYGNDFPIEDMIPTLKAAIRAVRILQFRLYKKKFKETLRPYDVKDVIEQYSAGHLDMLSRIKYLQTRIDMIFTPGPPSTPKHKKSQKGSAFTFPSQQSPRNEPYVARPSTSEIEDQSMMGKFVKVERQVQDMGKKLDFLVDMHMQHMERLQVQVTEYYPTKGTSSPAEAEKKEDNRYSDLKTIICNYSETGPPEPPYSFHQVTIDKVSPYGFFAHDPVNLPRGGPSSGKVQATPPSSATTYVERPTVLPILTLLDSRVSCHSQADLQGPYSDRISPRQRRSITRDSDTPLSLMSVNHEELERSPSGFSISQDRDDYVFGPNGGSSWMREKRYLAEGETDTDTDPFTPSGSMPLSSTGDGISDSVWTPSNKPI
T1 sequence (O43526 whole entry): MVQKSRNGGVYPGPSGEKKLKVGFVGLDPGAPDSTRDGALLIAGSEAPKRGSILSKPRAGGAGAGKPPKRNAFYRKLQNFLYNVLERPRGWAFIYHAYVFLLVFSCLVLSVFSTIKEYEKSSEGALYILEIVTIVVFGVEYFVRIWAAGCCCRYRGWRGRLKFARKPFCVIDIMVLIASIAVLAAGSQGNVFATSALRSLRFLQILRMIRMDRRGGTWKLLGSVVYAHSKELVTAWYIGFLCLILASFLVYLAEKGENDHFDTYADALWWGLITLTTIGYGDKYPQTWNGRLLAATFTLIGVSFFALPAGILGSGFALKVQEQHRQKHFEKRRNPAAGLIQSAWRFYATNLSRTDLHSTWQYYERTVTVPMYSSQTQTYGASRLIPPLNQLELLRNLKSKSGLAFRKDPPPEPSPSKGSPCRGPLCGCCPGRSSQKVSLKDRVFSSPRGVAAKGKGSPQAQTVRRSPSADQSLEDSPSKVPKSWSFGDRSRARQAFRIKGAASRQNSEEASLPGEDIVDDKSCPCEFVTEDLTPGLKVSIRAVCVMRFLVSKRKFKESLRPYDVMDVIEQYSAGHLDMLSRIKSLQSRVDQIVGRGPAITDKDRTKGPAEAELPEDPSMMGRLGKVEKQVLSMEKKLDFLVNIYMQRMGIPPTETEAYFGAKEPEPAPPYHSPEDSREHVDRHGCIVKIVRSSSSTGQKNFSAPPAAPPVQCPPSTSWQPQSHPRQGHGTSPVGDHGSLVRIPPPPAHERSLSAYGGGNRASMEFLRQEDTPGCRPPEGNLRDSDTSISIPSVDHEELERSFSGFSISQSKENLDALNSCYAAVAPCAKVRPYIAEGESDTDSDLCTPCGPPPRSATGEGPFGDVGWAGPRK
T2 sequence (O43525 whole entry): as the sequence (O43525 whole entry) above
T2 sequence (O43526 whole entry): as the sequence (O43526 whole entry) above

A word on the pEC50: it is the EC50 on a negative log10 scale, so that one unit is a factor of ten. Take `C[C@H](NC(=O)CC(O)C1CC(F)(F)C1)c1cccc(OC(F)(F)F)c1` (stereo in doubt) [Example 11a, 3-(3,3-Difluorocyclobutyl)-3-hydroxy-N-((S)-1-(3-(trifluoromethoxy)phenyl)ethyl)propanamide]: the pEC50 in experiment [1] was 5.82.

In turn, `C[C@H](NC(=O)C[C@H](O)C(C)(C)C)c1cccc(OC(F)(F)F)c1` [Example 1a, (S)-3-Hydroxy-4,4-dimethyl-N-((S)-1-(3-(trifluoromethoxy)phenyl)ethyl)pentanamide] showed a pEC50 in experiment [1] of 6.17. On the same count and under the same terms, the value for `C[C@H](NC(=O)C[C@@H](O)C(C)(C)C)c1cccc(OC(F)(F)F)c1` [Example 1b, (R)-3-Hydroxy-4,4-dimethyl-N-[(1S)-1-[3-(trifluoromethoxy)phenyl]ethyl]pentanamide] was 5.48; that for `C[C@H](NC(=O)CC1(O)CC(F)(F)C1)c1cccc(OC(F)(F)F)c1` [Example 5, (S)-2-(3,3-difluoro-1-hydroxycyclobutyl)-N-(1-(3-(trifluoromethoxy)phenyl)ethyl)acetamide] was 5.74.

`C[C@H](NC(=O)CC1(O)CCC1)c1cccc(OCC(F)(F)F)c1` [Example 6, (S)-2-(1-Hydroxycyclobutyl)-N-(1-(3-(2,2,2-trifluoroethoxy)phenyl)ethyl) acetamide] showed a pEC50 in experiment [1] of 5.52. Compared with the last compound, the pEC50 is 0.22 log units lower. `C[C@H](NC(=O)CC(O)(C(F)(F)F)C(F)(F)F)c1cccc(OC(F)(F)F)c1` [Example 9, 4,4,4-Trifluoro-3-hydroxy-N-[(1S)-1-[3-(trifluoro-methoxy)phenyl]ethyl]-3-(trifluoromethyl)butanamide] showed a pEC50 in experiment [1] of 6.25. This pEC50 lies 0.73 log units higher than the previous one.

Turning to `COC[C@H](NC(=O)CC1(O)CCCC1)c1cccc(OC(F)(F)F)c1` [Example 17, (R)-2-(1-Hydroxycyclopentyl)-N-(2-methoxy-1-(3-(trifluoromethoxy)phenyl)ethyl) acetamide], the pEC50 in experiment [1] is 5.60. This pEC50 lies 0.65 log units lower than the previous one. On to `CCOC(=O)Nc1ccc(NCc2ccc(F)cc2)cc1N` [Retigabine, N-(2-amino-4-(4-fluorobenzylamino)-phenyl) carbamic acid ethyl ester], for which, in experiment [2], the “effect on Kv7-current” value is on record as “potentiated”. Still for that read-out and setting: next, `O=C1c2ccccc2C(Cc2ccncc2)(Cc2ccncc2)c2ccccc21` [XE991]: “sensitive”.
